Results taken from US5808151A, “Biphenylamido derivatives as melatonergic agents” (Bristol-Myers Squibb Company, priority 1997, dated 1998).

Tests used:
[1] = target: ML1 rabbit melatonin receptor; assay: Melatonergic binding: ML1 rabbit melatonin receptor binding (2-[125I]-iodomelatonin, rabbit parietal cortex); design: species or system rabbit (Male New Zealand white); conditions: 37° C., 1 hour, read-out: In-Vitro Receptor Binding Activities ML1 (IC50)
Description: (§1) The melatonergic binding of the compounds of Formula I was determined by the method of Reppert, S. M., et al., as described in Neuron, Vol. 13, 1177-1185 (1994) and Proc. Nat. Acad. Sci. USA, 92, 8734-8738 (1995) and also as described by Stankov, B., et al., "Characterization and mapping of melatonin receptors in the brain of three mammalian species: Rabbit, horse and sheep," in Neuroendocrinology, 53, 214-221 (1991). The assays were incubated at 37° C. for 1 hour, and the reaction was terminated by filtration through a Brandel cell harvester. The filters were washed 3 times with wash buffer. […] The reagents, membranes, and techniques used in the melatonergic binding assays are more fully described below:
(§2) (a) 50 mM Tris buffer containing 12.5 mM MgCl2 and 2 mM EDTA (pH 7.4 at 37° C.).
(§3) (b) Wash buffer: 20 mM Tris base containing 2 mM MgCl2 (pH 7.4 at room temperature).
(§4) (c) 6-Chloromelatonin (10^-5 M final concn.).
(§5) (d) 2-[^125 I]-Iodomelatonin. Source: New England Nuclear
Male New Zealand white rabbits (Hazelton Research) are decapitated, the brains are rapidly removed and chilled. The parietal cortex is crudely dissected and the tissue frozen on dry ice at -80° C. until assayed. Tissue is weighed and thawed in 20 mls of ice-cold Tris buffer (a) and then homogenized by treatment with a polytron for 10 seconds at setting 17. Ice cold Tris (a) is added to a volume of 40 ml. The homogenate is centrifuged in a Sorvall-SS-34 head at 19,000 rpm (44,000× g) for 20 min at 4° C. The resulting supernatant is decanted and discarded. The pellet is re-homogenized in an additional 20 ml of Tris buffer, diluted and centrifuged as before. The supernatant is decanted and discarded. The resulting pellet is homogenized in 20 volumes of Tris buffer per gram of original tissue (a 1:20 homogenate), chilled, and held on ice until assayed.

[2] = target: T1, ML1a human melatonin receptor (Homo sapiens, UniProt P48039); assay: Melatonergic binding: ML1a human melatonin receptor binding (2-[125I]-iodomelatonin, COS-1 cell membranes); conditions: human ML1a in COS-1 cells; 37° C., 1 hour; read-out: In-Vitro Receptor Binding Activities ML1a (IC50)
T1 construct: expressed in transfected cells; host or cells: COS-1 cells
T1 sequence (P48039 whole entry): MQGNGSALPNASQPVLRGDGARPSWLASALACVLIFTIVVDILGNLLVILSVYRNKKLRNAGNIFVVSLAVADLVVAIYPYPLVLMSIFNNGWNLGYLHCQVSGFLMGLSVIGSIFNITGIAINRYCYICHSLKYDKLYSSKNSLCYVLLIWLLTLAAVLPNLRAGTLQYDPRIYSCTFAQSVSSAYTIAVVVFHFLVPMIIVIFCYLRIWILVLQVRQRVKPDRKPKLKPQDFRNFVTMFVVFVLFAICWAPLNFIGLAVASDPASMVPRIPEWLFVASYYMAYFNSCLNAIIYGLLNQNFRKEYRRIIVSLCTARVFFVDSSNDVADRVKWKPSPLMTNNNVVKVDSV
Description: as §1, §2, §3, §4, §5
The cDNA (human ML1a) was introduced into COS-1 cells by the DEAE-dextran method. Three days later, the media was removed, the plates washed with phosphate buffered saline, the cells removed using Hank's balanced salt solution and pelleted. The supernatant was discarded and the pellets frozen. For preparing membrane homogenates, the pellets are thawed on ice, and resuspended in TME buffer [Tris base, MgCl2, EDTA (pH 7.4 at 37° C.], supplemented with aprotinin, leupeptin and phenylmethyl-sulfonylfluoride. The cells were then homogenized using a dounce homogenizer and centrifuged. The resulting pellet was resuspended with a dounce homogenizer in TME and frozen. On the day of assay, a small aliquot was thawed on ice and resuspended in TME buffer (1:1000).

Structure (SMILES) | IC50 [1] | IC50 [2]
CCCC(=O)NCc1cccc(-c2cccc(OC)c2)c1 [Example 10, N-[(3'-methoxy-[1,1'-biphenyl]-3-yl)methyl]butanamide] | 10 to 50 nM | > 300 nM
CCNC(=O)NCc1ccccc1-c1cccc(OC)c1 [Example 9, N-Ethyl N'-[(3'-methoxy[1,1'-biphenyl]-2-yl)methyl]urea] | < 10 nM | 100 to 300 nM
CCCC(=O)NCc1ccccc1-c1cccc(OC)c1 [Example 7, N-[(3'-Methoxy[1,1'-biphenyl]-2-yl)methyl]butanamide] | 10 to 50 nM | 100 to 300 nM
COc1cccc(-c2cccc(NC(=O)C3CC3)c2)c1 [Example 3, N-(3'-Methoxy-[1,1'-biphenyl]-3-yl)cyclopropanecarboxamide] | – | < 100 nM
COc1cccc(-c2ccccc2CNC(=O)C(C)C)c1 [Example 8, N-[(3'-Methoxy[1,1'-biphenyl]-2-yl)methyl]-2-methylpropanamide] | < 10 nM | 100 to 300 nM
COc1cccc(-c2cccc(CNC(=O)C(C)C)c2)c1 [Example 11, N-[(3'-methoxy-[1,1'-biphenyl]-3-yl)methyl]-2-methylpropanamide] | < 10 nM | 100 to 300 nM

The remaining lines, values ahead:

IC50 [1] | IC50 [2] | Structure (SMILES)
> 50 nM | > 300 nM | CCNC(=O)Nc1cccc(-c2cccc(OC)c2)c1 [Example 6, N-Ethyl N'-(3'-methoxy-[1,1'-biphenyl]-3-yl)urea]
> 50 nM | < 100 nM | COc1cccc(-c2cccc(NC(=O)C(C)C)c2)c1 [Example 2, N-(3'-Methoxy-[1,1'-biphenyl]-3-yl)2-methylpropanamide]
< 10 nM | < 100 nM | CCCC(=O)Nc1cccc(-c2cccc(OC)c2)c1 [Example 1, N-(3'-Methoxy-[1,1'-biphenyl]-3-yl)butanamide]
– | > 300 nM | COCC(=O)Nc1cccc(-c2cccc(OC)c2)c1 [Example 5, N-(3'-Methoxy-[1,1'-biphenyl]-3-yl)-2-methoxyacetamide]
10 to 50 nM | > 300 nM | CCNC(=O)NCc1cccc(-c2cccc(OC)c2)c1 [Example 12, N-Ethyl N'-[(3'-methoxy-[1,1'-biphenyl]-3-yl)methyl]urea]
– | < 100 nM | CCC(=O)Nc1cccc(-c2cccc(OC)c2)c1 [Example 4, N-(3'-Methoxy-[1,1 '-biphenyl]-3-yl)propanamide]
